Each block holds one molecule with its values, some of them ahead of it.
What was measured:
[1] = tested on: Neurons originating from the cerebral hemisphere of rat fetus; experiment: Neurite-extension effect; assay type: cell-based; set-up: key to Neurite-extension effect: 0: No effect; +: Faintly effective; ++: Slightly effective; +++: Effective >160%; ++++: Remarkably effective >200%; settings: for activity at 0.01 µM: Rattus norvegicus, Neuron, 72 h; for activity at 0.01 µM / Neurite-extension effect: 1×10^−8 M, cultured for three days, phase-contrast microscope; for neurite-extension effect as compared with bFGF (in words): summary of Table 1
Protocol: Neurons originating from the cerebral hemisphere of rat fetus (13–15 days) were used. The neurons were cultured according to a method described by Borg, J. et al. (Borg, J. et al.: Dev. Brain Res., 18: 37, 1985). Neurons in an amount of 1.5×10^5 were dispersed on a polylysine-coated dish (35 mm), and DMEM (supplemented with insulin, transferrin, progesterone, sodium selenate, and putrescine) was added thereto in an amount of 3 ml. Compound (1) of the present invention was dissolved in ethanol, and then the solution was added thereto such that the concentration became 1×10^−8 M. The neurons had been cultured for three days without the culture medium being changed. Thereafter, the neurons were fixed by use of PBS containing 2% glutaraldehyde and observed under a phase-contrast microscope.

[2] = tested on: transgenic mice expressing an SOD-1 mutant gene; experiment: Bar test for confirming the motor function in transgenic mice expressing the mutant SOD-1 gene; assay type: in vivo, mouse; settings: 8 mg/kg i.p. three times a week; measured from 80 to 91 days after birth; metallic bar 10 mm diameter, 45 cm length
Protocol: (2) Meanwhile, during the survival test (1) of the transgenic mice, bar test for confirming the motor function was conducted. In this test, the mouse to which was administered compound of Preparation 10 and control mouse were compared in the time (seconds) required for their passing over a metallic bar having the size of 10 mm in diameter and 45 cm in length. The measurement was carried out from 80 days to 91 days after birth. […] However, when compared the difference between the time at the initial date and the time at the final date, of the mouse to which was administered compound of Preparation Example 10 and of the control mouse, the ratio of the difference of the mouse to which was administered compound of Preparation Example 10 to the difference of the control mouse was about 40%.

[3] = tested on: transgenic mice expressing an SOD-1 mutant gene (G86R); experiment: Survival test for transgenic mice expressing an SOD-1 mutant gene; assay type: in vivo, mouse
Protocol: Ten transgenic mice were subjected to the survival test. The transgenic mice employed were those in which Gly-86 in the fourth exon of a mouse SOD-1 gene is mutated to Arg (G86R) (Ripps M. E., et al.: Proc. Natl. Acad. Sci. USA. 92: 689–693, 1995). The compound of Preparation Example 10 [3-(14-hydroxytetradecyl)-4-methyl-2-cyclohexen-1-one] was dissolved in ethanol/Tween 80/physiological saline (5/2.85/92.15). The solution was intraperitoneally (i.p.) administered to five specimens at an effective dose of 2 mg/kg for 40 continuous days, and physiological saline alone was similarly administered to the other five specimens. One mouse died due to injection complication before elapse of 90 days. The other four mice died at day 150. All control animals died at about day 90. The life was prolonged by 50% or more, which has high significance.
(1) Transgenic mice expressing an SOD-1 mutant gene were subjected to the survival test in the same manner as Test Example 1 except that 8 mg/kg of compound of Preparation Example 10 was intraperitoneally administered three times a week until the mice died. […] The life was prolonged by 30% or more.
(3) Moreover, in the survival test of transgenic mice (1), onset day (i.e., the day from which mouse becomes impossible to move) was compared between the mouse to which was administered compound of Preparation Example 10 and the control mouse. As a result, for the mouse to which was administered compound of Preparation Example 10, when compared to the control mouse, a prolonged time to the onset day by […] was observed, onset day being prolonged by 20%.

melting point: 34 to 35 °C
Molecule: CCCCCCCCCCC(O)C1=CC(=O)CCC1 (stereo not drawn) [Preparation Example 2, 3-(1-hydroxy-undecyl)-2-cyclohexen-1-one]

melting point: 35 to 36 °C
Molecule: O=C1C=C(CCCCCCCCCCCCO)CCC1 [Preparation Example 3, 3-(12-hydroxy-dodecyl)-2-cyclohexen-1-one]

melting point: 42 to 43 °C
Molecule: CCCCCCCCCCCC(O)CC1=CC(=O)CCC1 (stereo not drawn) [Preparation Example 4, 3-(β-hydroxy-tridecyl)-2-cyclohexen-1-one]

melting point: 44 to 45 °C
Molecule: O=C1C=C(CCCCCCCCCCCCCCO)CCC1 [Preparation Example 5, 3-(14-hydroxy-tetradecyl)-2-cyclohexen-1-one]

Molecule: CC1CCC(=O)C=C1CCCCCCCCCCCCO (stereo not drawn) [Preparation Example 8, 3-(12-hydroxydodecyl)-4-methyl-2-cyclohexen-1-one]
activity at 0.01 µM [1]: > 160%

Molecule: CCCCCCCCCCCC(O)CC1=CC(=O)CCC1C (stereo not drawn) [Preparation Example 9, 3-(β-hydroxytridecyl)-4-methyl-2-cyclohexen-1-one]
activity at 0.01 µM [1]: > 200%
neurite-extension effect as compared with bFGF (in words) [1]: remarkably excellent

Molecule: CC1CCC(=O)C=C1CCCCCCCCCCCCCCO (stereo not drawn) [Preparation Example 10, 3-(14-hydroxytetradecyl)-4-methyl-2-cyclohexen-1-one]
ratio of the difference (time at initial date vs final date for passing the bar) of treated mouse to that of control mouse [2]: about 40%
prolongation of life ([3]; Test Example 1: 2 mg/kg i.p. for 40 continuous days, versus saline control): ≥ 50%
day at which treated mice died ([3]; Test Example 1: 2 mg/kg i.p. for 40 continuous days, four of five mice (one died of injection complication before day 90), controls died at about day 90): 150 days
activity of mice during the test ([3]; Test Example 1, control mice were morbid and could not act appropriately): very active
survival of two of the treated mice ([3]; Test Example 2: 8 mg/kg i.p. three times a week until death): more than 200 days
day at which treated mice died, on average ([3]; Test Example 2: 8 mg/kg i.p. three times a week until death, controls died at around day 110): ~150 days
prolongation of onset day ([3]; Test Example 2: 8 mg/kg i.p. three times a week, compared to control): 20%
prolongation of life ([3]; Test Example 2: 8 mg/kg i.p. three times a week, versus control): ≥ 30%
activity at 0.01 µM [1]: > 200%
neurite-extension effect as compared with bFGF (in words) [1]: remarkably excellent

Molecule: CC1(C)CCC(=O)C=C1CCCCCCCCCCCO [Preparation Example 12, 3-(11-hydroxyundecyl)-4,4-dimethyl-2-cyclohexen-1-one]
Neurite-extension effect [1]: ++

Molecule: CC1(C)CCC(=O)C=C1CCCCCCCCCCCCO [Preparation Example 13, 3-(12-hydroxydodecyl)-4,4-dimethyl-2-cyclohexen-1-one]
activity at 0.01 µM [1]: > 160%

Molecule: CCCCCCCCCCCC(O)CC1=CC(=O)CCC1(C)C (stereo not drawn) [Preparation Example 14, 3-(β-hydroxytridecyl)-4,4-dimethyl-2-cyclohexen-1-one]
activity at 0.01 µM [1]: > 160%

Molecule: CC1(C)CCC(=O)C=C1CCCCCCCCCCCCCCO [Preparation Example 15, 3-(14-hydroxytetradecyl)-4,4-dimethyl-2-cyclohexen-1-one]
activity at 0.01 µM [1]: > 160%

Molecule: CC1=C(CCCCCCCCCCCCO)CCCC1=O [Preparation Example 18, 3-(12-hydroxydodecyl)-2-methyl-2-cyclohexen-1-one]
Neurite-extension effect [1]: ++

Molecule: CC1=C(CCCCCCCCCCCCCCO)CCCC1=O [Preparation Example 20, 3-(14-hydroxytetradecyl)-2-methyl-2-cyclohexen-1-one]
activity at 0.01 µM [1]: > 200%
neurite-extension effect as compared with bFGF (in words) [1]: remarkably excellent

Molecule: CC1=C(CCCCCCCCCCC(C)O)C(C)(C)CCC1=O (stereo not drawn) [Preparation Example 22, 3-(11-hydroxydodecyl)-2,4,4-trimethyl-2-cyclohexen-1-one]
Neurite-extension effect [1]: ++

Molecule: CC1=C(CCCCCCCCCCCCCCO)C(C)(C)CCC1=O [Preparation Example 23, 3-(14-hydroxytetradecyl)-2,4,4-trimethyl-2-cyclohexen-1-one]
activity at 0.01 µM [1]: > 160%
neurite-extension effect as compared with bFGF (in words) [1]: remarkably excellent

Molecule: CC1=C(CCCCCCCCCCCCCCCO)C(C)(C)CCC1=O [Preparation Example 24, 3-(15-hydroxypentadecyl)-2,4,4-trimethyl-2-cyclohexen-1-one]
activity at 0.01 µM [1]: > 200%
neurite-extension effect as compared with bFGF (in words) [1]: remarkably excellent

Molecule: BFGF: bFGF, comparison substance in the neurite-extension test of Table 1 [reference compound]
Neurite-extension effect [1]: ++

— US7166642B1, “Use of cyclohexenone long-chain alcohol for treating neurodegenerative diseases” (Meiji Dairies Corporation, priority 1999, dated 2007)
